Reference: the NIST ThermoML archive (doi:10.1021/je020189p)
“And” between values parts separate entries of the source, which are not always exact repeats. Identical values can stand only once. ± gives the expanded uncertainty stated by the source.

Conditions: Crystal

[I][Gd]([I])[I] [gadolinium triiodide]
Conditions	vapor or sublimation pressure
890 K	4.47e-05 ± 1.4e-05 kPa
891 K	5.62e-05 ± 1.7e-05 kPa
901 K	6.76e-05 ± 2e-05 kPa and 8.32e-05 ± 2.5e-05 kPa and 5.62e-05 ± 1.7e-05 kPa
905 K	8.51e-05 ± 2.6e-05 kPa
911 K	0.000112 ± 3.4e-05 kPa
912 K	8.91e-05 ± 2.7e-05 kPa
913 K	0.000112 ± 3.4e-05 kPa
914 K	0.000138 ± 4.2e-05 kPa and 8.91e-05 ± 2.7e-05 kPa
916 K	0.000112 ± 3.4e-05 kPa
918 K	0.000135 ± 4.2e-05 kPa
919 K	0.000155 ± 4.8e-05 kPa
920 K	0.000112 ± 3.4e-05 kPa
922 K	0.000178 ± 5.4e-05 kPa
924 K	0.000123 ± 3.8e-05 kPa
925 K	0.000178 ± 5.4e-05 kPa
927 K	0.000174 ± 5.3e-05 kPa and 0.000151 ± 4.6e-05 kPa
928 K	0.000145 ± 4.4e-05 kPa and 0.000195 ± 5.9e-05 kPa and 0.000209 ± 6.3e-05 kPa
929 K	0.000234 ± 7e-05 kPa
933 K	0.000191 ± 5.8e-05 kPa
934 K	0.000269 ± 8.1e-05 kPa
936 K	0.0002 ± 6.2e-05 kPa
937 K	0.000282 ± 8.5e-05 kPa and 0.000251 ± 7.6e-05 kPa
938 K	0.000324 ± 9.8e-05 kPa
939 K	0.000295 ± 9.2e-05 kPa
942 K	0.000347 ± 0.00011 kPa and 0.000269 ± 8.2e-05 kPa
943 K	0.000245 ± 7.5e-05 kPa
944 K	0.000355 ± 0.00011 kPa
946 K	0.000398 ± 0.00012 kPa
947 K	0.000389 ± 0.00012 kPa
948 K	0.000372 ± 0.00011 kPa
951 K	0.000331 ± 0.0001 kPa
952 K	0.00049 ± 0.00015 kPa
954 K	0.000417 ± 0.00013 kPa
955 K	0.000525 ± 0.00016 kPa and 0.000603 ± 0.00018 kPa
957 K	0.000575 ± 0.00018 kPa and 0.000457 ± 0.00014 kPa
959 K	0.000447 ± 0.00014 kPa
962 K	0.000708 ± 0.00021 kPa
964 K	0.000794 ± 0.00024 kPa
966 K	0.000575 ± 0.00017 kPa and 0.000794 ± 0.00024 kPa and 0.000631 ± 0.00019 kPa
967 K	0.000724 ± 0.00022 kPa
970 K	0.000912 ± 0.00028 kPa
973 K	0.00107 ± 0.00032 kPa
974 K	0.00102 ± 0.00031 kPa
975 K	0.00107 ± 0.00032 kPa and 0.000891 ± 0.00027 kPa
978 K	0.000832 ± 0.00025 kPa and 0.00107 ± 0.00032 kPa
979 K	0.00126 ± 0.00038 kPa
983 K	0.00135 ± 0.00041 kPa and 0.00115 ± 0.00035 kPa
984 K	0.00145 ± 0.00044 kPa
985 K	0.00158 ± 0.00047 kPa
987 K	0.00162 ± 0.00049 kPa
988 K	0.00115 ± 0.00035 kPa
990 K	0.00155 ± 0.00047 kPa
992 K	0.00174 ± 0.00054 kPa and 0.00141 ± 0.00044 kPa
993 K	0.00191 ± 0.00057 kPa and 0.00204 ± 0.00061 kPa
995 K	0.00214 ± 0.00065 kPa
997 K	0.00138 ± 0.00042 kPa
1002 K	0.00251 ± 0.00076 kPa and 0.00219 ± 0.00066 kPa
1003 K	0.00269 ± 0.00081 kPa
1006 K	0.00191 ± 0.00058 kPa
1011 K	0.00331 ± 0.001 kPa and 0.00282 ± 0.00085 kPa
1012 K	0.00355 ± 0.0011 kPa
1019 K	0.00339 ± 0.001 kPa
1021 K	0.00389 ± 0.0012 kPa
1023 K	0.00676 ± 0.002 kPa
1026 K	0.00407 ± 0.0013 kPa
1033 K	0.00871 ± 0.0026 kPa and 0.00537 ± 0.0016 kPa
1040 K	0.00603 ± 0.0018 kPa
1042 K	0.00692 ± 0.0021 kPa
1045 K	0.0126 ± 0.0038 kPa
1052 K	0.00871 ± 0.0026 kPa
1054 K	0.00977 ± 0.003 kPa
1055 K	0.017 ± 0.0052 kPa
1064 K	0.0219 ± 0.0066 kPa
1066 K	0.0135 ± 0.0041 kPa and 0.0145 ± 0.0044 kPa
1074 K	0.0302 ± 0.0091 kPa
1076 K	0.0209 ± 0.0063 kPa
1082 K	0.0214 ± 0.0065 kPa
1083 K	0.0398 ± 0.012 kPa
1086 K	0.0282 ± 0.0086 kPa
1094 K	0.0537 ± 0.016 kPa
1097 K	0.0372 ± 0.011 kPa
1102 K	0.0676 ± 0.021 kPa

[I][Tb]([I])[I] [terbium triiodide]
Conditions	vapor or sublimation pressure
861 K	1.91e-05 ± 5.8e-06 kPa
871 K	2.82e-05 ± 8.5e-06 kPa
879 K	3.31e-05 ± 1e-05 kPa
883 K	4.27e-05 ± 1.3e-05 kPa
884 K	3.8e-05 ± 1.2e-05 kPa and 5.01e-05 ± 1.5e-05 kPa
885 K	5.01e-05 ± 1.5e-05 kPa
891 K	4.79e-05 ± 1.5e-05 kPa
892 K	6.17e-05 ± 1.9e-05 kPa
895 K	7.08e-05 ± 2.2e-05 kPa
897 K	6.61e-05 ± 2e-05 kPa and 5.75e-05 ± 1.8e-05 kPa
900 K	0.0001 ± 3e-05 kPa
902 K	9.12e-05 ± 2.8e-05 kPa
903 K	7.59e-05 ± 2.3e-05 kPa
907 K	0.000126 ± 3.9e-05 kPa
909 K	0.000115 ± 3.5e-05 kPa and 9.55e-05 ± 2.9e-05 kPa
911 K	0.000151 ± 4.5e-05 kPa
912 K	0.000132 ± 4e-05 kPa
913 K	0.000123 ± 3.8e-05 kPa
915 K	0.000115 ± 3.5e-05 kPa
917 K	0.000174 ± 5.2e-05 kPa
920 K	0.000141 ± 4.3e-05 kPa
921 K	0.0002 ± 6e-05 kPa
922 K	0.000186 ± 5.6e-05 kPa
926 K	0.000209 ± 6.3e-05 kPa
927 K	0.000182 ± 5.5e-05 kPa and 0.000251 ± 7.6e-05 kPa
928 K	0.000251 ± 7.5e-05 kPa
929 K	0.000229 ± 6.9e-05 kPa
930 K	0.00024 ± 7.2e-05 kPa
931 K	0.000209 ± 6.3e-05 kPa
935 K	0.00024 ± 7.4e-05 kPa
936 K	0.000339 ± 0.0001 kPa
937 K	0.000347 ± 0.00011 kPa
938 K	0.000316 ± 0.00011 kPa
939 K	0.000339 ± 0.00012 kPa
940 K	0.000339 ± 0.0001 kPa and 0.000282 ± 8.6e-05 kPa
942 K	0.000676 ± 0.0002 kPa
944 K	0.000447 ± 0.00014 kPa
945 K	0.000479 ± 0.00015 kPa
947 K	0.000407 ± 0.00012 kPa and 0.000363 ± 0.00011 kPa
948 K	0.000468 ± 0.00014 kPa and 0.000427 ± 0.00013 kPa
951 K	0.00055 ± 0.00018 kPa
952 K	0.001 ± 0.00031 kPa
953 K	0.000447 ± 0.00014 kPa and 0.000603 ± 0.00018 kPa
955 K	0.000955 ± 0.00029 kPa
958 K	0.000661 ± 0.0002 kPa and 0.000631 ± 0.00019 kPa
959 K	0.000692 ± 0.00021 kPa and 0.000741 ± 0.00022 kPa
961 K	0.000776 ± 0.00026 kPa
963 K	0.000661 ± 0.0002 kPa
964 K	0.00135 ± 0.00041 kPa
966 K	0.000891 ± 0.00027 kPa and 0.000955 ± 0.00029 kPa
967 K	0.000912 ± 0.00028 kPa and 0.000977 ± 0.0003 kPa
971 K	0.00105 ± 0.00034 kPa and 0.00166 ± 0.00051 kPa and 0.001 ± 0.00032 kPa
972 K	0.00191 ± 0.00059 kPa and 0.0012 ± 0.00038 kPa
973 K	0.00117 ± 0.00035 kPa and 0.00115 ± 0.00035 kPa and 0.000955 ± 0.00029 kPa
975 K	0.00186 ± 0.00056 kPa
976 K	0.00135 ± 0.00041 kPa
977 K	0.00141 ± 0.00043 kPa
979 K	0.00141 ± 0.00042 kPa
980 K	0.00148 ± 0.00044 kPa and 0.00138 ± 0.00041 kPa
981 K	0.00123 ± 0.00037 kPa
983 K	0.00151 ± 0.00046 kPa and 0.0024 ± 0.00072 kPa
985 K	0.00186 ± 0.0006 kPa
986 K	0.00182 ± 0.00058 kPa and 0.0017 ± 0.00055 kPa
987 K	0.00288 ± 0.00089 kPa and 0.00191 ± 0.0006 kPa
988 K	0.00288 ± 0.00087 kPa and 0.00178 ± 0.00054 kPa and 0.00155 ± 0.00047 kPa
990 K	0.00288 ± 0.00087 kPa
992 K	0.00234 ± 0.00071 kPa
993 K	0.00219 ± 0.00067 kPa
994 K	0.00229 ± 0.0007 kPa and 0.00182 ± 0.00056 kPa
995 K	0.0024 ± 0.00076 kPa and 0.00389 ± 0.0012 kPa
998 K	0.00282 ± 0.00085 kPa [middle of 4 runs]
1001 K	0.00282 ± 0.00086 kPa
1002 K	0.0024 ± 0.00073 kPa
1003 K	0.00288 ± 0.00087 kPa and 0.00501 ± 0.0015 kPa
1004 K	0.00479 ± 0.0014 kPa and 0.00339 ± 0.001 kPa
1005 K	0.00479 ± 0.0014 kPa
1006 K	0.00309 ± 0.00093 kPa
1008 K	0.00339 ± 0.001 kPa and 0.00389 ± 0.0012 kPa
1009 K	0.00282 ± 0.00096 kPa and 0.0038 ± 0.0012 kPa
1012 K	0.00575 ± 0.0017 kPa and 0.00676 ± 0.002 kPa
1013 K	0.00447 ± 0.0015 kPa
1015 K	0.00437 ± 0.0013 kPa
1016 K	0.00708 ± 0.0022 kPa
1017 K	0.00525 ± 0.0017 kPa
1018 K	0.00501 ± 0.0015 kPa
1019 K	0.00759 ± 0.0023 kPa
1020 K	0.00912 ± 0.0027 kPa
1021 K	0.00617 ± 0.0019 kPa
1022 K	0.0055 ± 0.0016 kPa
1026 K	0.00661 ± 0.002 kPa
1027 K	0.00977 ± 0.0029 kPa
1028 K	0.00955 ± 0.0029 kPa
1029 K	0.00676 ± 0.002 kPa and 0.0117 ± 0.0035 kPa and 0.00692 ± 0.0021 kPa
1033 K	0.00813 ± 0.0026 kPa
1036 K	0.0129 ± 0.0041 kPa
1037 K	0.00891 ± 0.0028 kPa and 0.0132 ± 0.004 kPa
1039 K	0.0162 ± 0.0049 kPa
1043 K	0.0162 ± 0.0049 kPa
1044 K	0.0115 ± 0.0035 kPa
1049 K	0.0195 ± 0.0059 kPa and 0.0204 ± 0.0062 kPa and 0.0224 ± 0.0068 kPa
1050 K	0.0135 ± 0.0042 kPa
1057 K	0.0245 ± 0.0074 kPa
1058 K	0.0174 ± 0.0052 kPa
1059 K	0.0263 ± 0.0079 kPa and 0.0309 ± 0.0093 kPa
1064 K	0.0209 ± 0.0063 kPa and 0.0309 ± 0.0093 kPa
1066 K	0.0316 ± 0.0095 kPa and 0.038 ± 0.011 kPa
1070 K	0.0263 ± 0.0079 kPa
1072 K	0.0389 ± 0.012 kPa
1077 K	0.0324 ± 0.0098 kPa
1078 K	0.0457 ± 0.014 kPa
